The values below come from article PMC8705818, “Experimental Characterization of the Interaction between the N-Terminal SH3 Domain of Crkl and C3G” (International Journal of Molecular Sciences, 2021).

Structures are written as SMILES. Peptide text beside a SMILES is read from it. * marks the point of attachment. Dansyl = CN(C)c1cccc2c(S(=O)(=O)*)cccc12

In this test the target is T1, N-SH3 domain of Crkl (WT) (Homo sapiens, UniProt P46109).
T1 construct: The construct encoding the N-SH3 domain of Crkl was subcloned in a pET28b+ plasmid vector; His-tag; made in house; host or cells: E. coli BL21
Nature of the test: Stopped-flow kinetic binding, N-SH3 WT versus C3G277–296. As to conditions: 10 °C. An excerpt: In order to characterize the binding reaction between the N-SH3 domain of Crkl and C3G, we conducted kinetic binding experiments with a stopped-flow apparatus, by rapidly mixing the N-SH3 domain versus the C3G277–296 peptide, the latter covalently linked with a dansyl group at its N-terminus (Dansyl-[…]). This modification allowed us to monitor the binding reaction by following the change of Förster resonance energy transfer (FRET) signal upon binding, which generates from the two naturally present tryptophan residues in the N-SH3 domain in position 164 and 165 (donor) and the dansyl group linked to the peptide (acceptor).
To characterize the binding between N-SH3 and the C3G277–296 peptide, we resorted to carry out pre-steady state rapid mixing stopped-flow experiments. In these types of experiments, a common practice lies in performing the kinetic analysis under the so-called pseudo-first-order conditions, i.e., a condition in which one of the two reactants is held at a much higher concentration than the other. In practice, in many cases, it is extremely difficult to achieve such conditions. This is particularly true in cases in which the observed rate constants are so high to approach the experimental limitations of the stopped-flow apparatus. Accordingly, as described below, the analysis of the binding data must be performed by applying the analytical solution of the bimolecular binding transition.
We rapidly mixed a constant concentration of C3G277–296 peptide (0.5 µM) versus increasing concentrations of N-SH3 (ranging from 0.5 to 5 µM) and the observed rate constants (kobs) obtained at different ionic strength conditions (buffer Hepes 50 mM, pH 7.0, 0.15 M, 0.3 M, 0.5 M and 1 M NaCl) were plotted as function of concentration of N-SH3 and fitted with a linear equation (Figure 1). By following previously derived equations [19, 20], the dependence of kobs as function of [N-SH3] was fitted with Equation (1), taking into account the non-pseudo-first order conditions, allowing us to calculate the microscopic association rate constant (kon), the microscopic dissociation rate constant (koff) of the binding reaction and the equilibrium dissociation rate constant KD, such as koff/kon. To increase the reliability of the calculated KD, we resorted to directly obtaining a koff value through displacement experiments (Table 1), in which a preincubated complex of N-SH3 domain and dansylated C3G277–296 peptide (at the concentration of 0.5 and 2 µM, respectively) were rapidly mixed versus a high excess of nondansylated peptide (ranging from 20 to 40 µM). In agreement with the theory in [21], the observed rate constants were insensitive to displacer concentration. In all binding and displacement experiments conducted, traces were satisfactorily fitted with a single-exponential equation. (1) kobs=(kon^2∗(2−[NSH3])^2+koff^2+2konkoff(2+[NSH3]))^1/2
To further investigate the role of charges in the binding reaction between N-SH3 domain and C3G, we resorted to performing kinetic binding experiment at different pH conditions, at a range of pH between 5.0 and 9.0. The observed rate constants obtained at different pH conditions were fitted with Equation (1) (Figure 2, left), and the calculated kinetic parameters kon and koff (obtained from separated displacement experiments) are reported in Table 1.
Kinetic binding experiments were performed on a single-mixing SX-18 stopped-flow instrument (Applied Photophysics), by mixing a constant concentration (0.5 μM) of C3G dansylated versus increasing concentrations of N-SH3 at 10 °C. Ionic strength dependence of wt N-SH3 was performed with concentrations ranging from 1 to 5 µM for 0 M NaCl condition and from 0.5 to 5 µM for 0.15 M, 0.3 M, 0.5 M and 1 M NaCl, buffer Hepes 50 mM pH 7.0. The excitation wavelength was 280 nm, and fluorescence was collected using a 455 nm cut-off filter. At least, five independent acquisitions were collected and averaged for each experiment. […]

T1 sequence (P46109 123-183 limits assumed): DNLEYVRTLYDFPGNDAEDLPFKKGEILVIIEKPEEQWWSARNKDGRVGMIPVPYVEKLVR

One may read the kon as the second-order rate constant of association. A high value points to faster complex formation. As to `CC(C)C[C@H](NC(=O)[C@H](C)NC(=O)[C@@H]1CCCN1C(=O)[C@@H]1CCCN1C(=O)[C@@H]1CCCN1C(=O)[C@H](CO)NC(=O)[C@H](CC(N)=O)NC(=O)[C@H](CC(=O)O)NC(=O)[C@@H](NC(=O)[C@@H](NS(=O)(=O)c1cccc2c(N(C)C)cccc12)C(C)C)C(C)C)C(=O)N1CCC[C@H]1C(=O)N1CCC[C@H]1C(=O)N[C@@H](CCCCN)C(=O)N[C@@H](CCCCN)C(=O)N[C@@H](CCCNC(=N)N)C(=O)N[C@@H](CCC(N)=O)C(=O)N[C@@H](CO)C(=O)N[C@@H](C)C(=O)N1CCC[C@H]1C(=O)N[C@@H](CO)C(=O)O` [C3G277–296] (Dansyl-VVDNSPPPALPPKKRQSAPS-OH), the kon (pH 5, pH 5.0 (50 mM Sodium Acetate), 0.5 M NaCl, 0.5 µM dansylated peptide vs 4.0–8.0 µM N-SH3) was determined as 4.4e+07 ± 1.5e+07 M⁻¹ s⁻¹; the kon (pH 5.5, pH 5.5 (50 mM Sodium Acetate), 0.5 M NaCl, 0.5 µM dansylated peptide vs 2.0–7.0 µM N-SH3) is 3.7e+07 ± 3e+06 M⁻¹ s⁻¹; the kon (pH 6.5, pH 6.5 (Bis–Tris 50 mM), 0.5 M NaCl, 0.5 µM dansylated peptide vs 0.5–5.0 µM N-SH3) turned out to be 6.5e+07 ± 4e+06 M⁻¹ s⁻¹; the on-rate constant (kon) (pH 7, 0 M NaCl, Hepes 50 mM pH 7.0, 0.5 µM dansylated peptide vs 1–5 µM N-SH3, FRET, ex 280 nm, 455 nm cut-off, at least five acquisitions averaged) is 1.3e+08 ± 7e+06 M⁻¹ s⁻¹; the kon (pH 7, 0.15 M NaCl, Hepes 50 mM pH 7.0, 0.5 µM dansylated peptide vs 0.5–5 µM N-SH3, FRET) was found to be 9.6e+07 ± 8e+06 M⁻¹ s⁻¹; the kon (pH 7, 0.3 M NaCl, Hepes 50 mM pH 7.0, 0.5 µM dansylated peptide vs 0.5–5 µM N-SH3, FRET) was 8.3e+07 ± 7e+06 M⁻¹ s⁻¹. For the same molecule, the kon runs as follows: (pH 7, 0.5 M NaCl (ionic strength series), Hepes 50 mM pH 7.0, 0.5 µM dansylated peptide vs 0.5–5 µM N-SH3, FRET) 5.1e+07 ± 4e+06 M⁻¹ s⁻¹; (pH 7, 1.0 M NaCl, Hepes 50 mM pH 7.0, 0.5 µM dansylated peptide vs 0.5–5 µM N-SH3, FRET) 6.8e+07 ± 5e+06 M⁻¹ s⁻¹; (pH 7, pH 7.0 (Hepes 50 mM), 0.5 M NaCl (pH series), 0.5 µM dansylated peptide vs 1.5–6.0 µM N-SH3) 5.2e+07 ± 5e+06 M⁻¹ s⁻¹; (pH 7.5, pH 7.5 (Hepes 50 mM), 0.5 M NaCl, 0.5 µM dansylated peptide vs 0.5–5.0 µM N-SH3) 5.1e+07 ± 5e+06 M⁻¹ s⁻¹; (pH 8, pH 8.0 (Tris–HCl 50 mM), 0.5 M NaCl, 0.5 µM dansylated peptide vs 1.5–6.0 µM N-SH3) 5.6e+07 ± 5e+06 M⁻¹ s⁻¹; (pH 8.5, pH 8.5 (Tris–HCl 50 mM), 0.5 M NaCl, 0.5 µM dansylated peptide vs 1.5–6.0 µM N-SH3) 6.8e+07 ± 7e+06 M⁻¹ s⁻¹. The molecule further yielded a kon (pH 9, pH 9.0 (Tris–HCl 50 mM), 0.5 M NaCl, 0.5 µM dansylated peptide vs 1.5–6.0 µM N-SH3) of 3.9e+07 ± 4e+06 M⁻¹ s⁻¹.
